From ChEMBL document CHEMBL4229566, “Discovery of ( S)-3-(3-(3,5-Dimethyl-1 H-pyrazol-1-yl)phenyl)-4-(( R)-3-(2-(5,6,7,8-tetrahydro-1,8-naphthyridin-2-yl)ethyl)pyrrolidin-1-yl)butanoic Acid, a Nonpeptidic αvβ6 Integrin Inhibitor for the Inhaled Treatment of Idiopathic Pulmonary Fibrosis” (J Med Chem, 2018) come the findings set out here.

Series [1] concerns the target T1, Integrin alpha-V/beta-6 (Homo sapiens, UniProt P06756+P18564).
Target sequence in this assay (P06756 31-889 limits assumed): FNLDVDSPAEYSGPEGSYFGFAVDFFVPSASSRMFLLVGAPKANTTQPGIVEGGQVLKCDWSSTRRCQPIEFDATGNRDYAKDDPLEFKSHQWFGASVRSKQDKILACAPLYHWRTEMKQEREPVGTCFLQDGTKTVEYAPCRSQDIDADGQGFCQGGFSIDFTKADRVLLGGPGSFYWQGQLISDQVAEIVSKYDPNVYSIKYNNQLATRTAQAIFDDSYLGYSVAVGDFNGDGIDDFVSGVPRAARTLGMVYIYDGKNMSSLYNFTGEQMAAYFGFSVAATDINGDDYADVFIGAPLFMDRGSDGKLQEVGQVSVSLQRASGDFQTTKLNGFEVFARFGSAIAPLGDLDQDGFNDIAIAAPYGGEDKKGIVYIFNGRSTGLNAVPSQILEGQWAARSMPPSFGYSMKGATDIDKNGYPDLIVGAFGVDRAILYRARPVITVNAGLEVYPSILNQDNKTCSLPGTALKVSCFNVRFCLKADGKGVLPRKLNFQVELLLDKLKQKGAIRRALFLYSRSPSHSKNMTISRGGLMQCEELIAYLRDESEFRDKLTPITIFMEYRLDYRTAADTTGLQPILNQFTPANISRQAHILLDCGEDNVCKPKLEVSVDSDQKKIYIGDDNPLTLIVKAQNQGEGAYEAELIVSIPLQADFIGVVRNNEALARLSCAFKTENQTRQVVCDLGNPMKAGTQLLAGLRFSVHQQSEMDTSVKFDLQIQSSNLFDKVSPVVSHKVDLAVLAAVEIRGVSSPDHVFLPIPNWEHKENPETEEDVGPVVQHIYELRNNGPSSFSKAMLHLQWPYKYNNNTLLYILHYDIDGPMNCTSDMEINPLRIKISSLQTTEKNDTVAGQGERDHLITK
Target sequence in this assay (P06756 891-1048 limits assumed): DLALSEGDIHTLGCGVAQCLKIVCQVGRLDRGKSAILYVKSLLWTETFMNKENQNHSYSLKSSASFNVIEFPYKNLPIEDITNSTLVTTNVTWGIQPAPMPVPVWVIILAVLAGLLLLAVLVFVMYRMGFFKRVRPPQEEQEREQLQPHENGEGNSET
Target sequence in this assay (P18564 22-788 limits assumed): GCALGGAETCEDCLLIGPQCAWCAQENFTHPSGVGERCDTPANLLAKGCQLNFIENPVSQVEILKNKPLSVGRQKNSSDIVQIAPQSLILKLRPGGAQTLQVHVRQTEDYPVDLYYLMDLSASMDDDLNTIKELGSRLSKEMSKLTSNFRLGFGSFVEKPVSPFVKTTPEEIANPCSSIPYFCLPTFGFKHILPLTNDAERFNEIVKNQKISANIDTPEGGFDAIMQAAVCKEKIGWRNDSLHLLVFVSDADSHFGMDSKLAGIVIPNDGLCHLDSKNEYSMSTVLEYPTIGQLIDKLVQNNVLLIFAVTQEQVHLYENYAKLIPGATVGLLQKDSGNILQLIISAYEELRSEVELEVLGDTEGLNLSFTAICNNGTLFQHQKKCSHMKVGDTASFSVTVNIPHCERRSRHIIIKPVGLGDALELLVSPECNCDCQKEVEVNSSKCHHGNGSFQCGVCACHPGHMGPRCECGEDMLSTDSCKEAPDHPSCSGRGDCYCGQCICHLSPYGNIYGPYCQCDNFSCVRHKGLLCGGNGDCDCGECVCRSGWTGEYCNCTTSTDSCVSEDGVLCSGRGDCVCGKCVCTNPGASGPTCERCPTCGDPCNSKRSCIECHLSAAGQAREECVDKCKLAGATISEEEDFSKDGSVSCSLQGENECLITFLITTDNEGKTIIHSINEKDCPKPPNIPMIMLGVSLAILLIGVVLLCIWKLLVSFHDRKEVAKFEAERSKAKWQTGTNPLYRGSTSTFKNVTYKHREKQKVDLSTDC
The target of series [2] is T1, Integrin alpha-V/beta-6. This is another data set of the same source.
Description: Binding affinity to human integrin alphaVbeta6 assessed as dissociation half life up to 48 hrs by liquid scintillation counting
The nature of series [3]: physchem. Particulars: buffer, pH 7.4, logD.
The target in series [4] is T2, Voltage-gated inwardly rectifying potassium channel KCNH2 (Homo sapiens, UniProt Q12809).
Description: (§1) Inhibition of human ERG expressed in HEK293 cells by Barracuda automated patch clamp assay
The target in series [5] is T2, Voltage-gated inwardly rectifying potassium channel KCNH2. This is another data set of the same source.
Description: Inhibition of human ERG expressed in HEK293 cells by Q-patch assay
Series [6] is described as follows: Protein binding in human blood at 1 ug/ml after 4 hrs by LC-MS/MS analysis. The format is ADME, tissue-based. Particulars: at 1 µg/mL, read-out: PB (converted).
Series [7] in a line: Toxicity in rabbit cardiac ventricular wedge assessed as increase in QT interval prolongation at 1 to 3 uM. It is filed as tissue-based, Oryctolagus cuniculus, Cardiac ventricle.
The conditions of series [8]: buffer, pH 7.4.
Series [9] deals with T2, Voltage-gated inwardly rectifying potassium channel KCNH2. Particulars: HEK293 cells expressing hERG.
Description: as §1
The nature of series [10]: Stability in pH 5 to 7 solution under refrigerated conditions. It is filed as physicochemical. Particulars: buffer.
A short description of series [11]: Stability in solid state form at elevated temperatures and relative humidity conditions. It is filed as physicochemical.
Series [12] is described as follows: Stability in saline at pH 4 at 50 degC. It is filed as physicochemical. Particulars: buffer.

T2 sequence (Q12809 whole entry): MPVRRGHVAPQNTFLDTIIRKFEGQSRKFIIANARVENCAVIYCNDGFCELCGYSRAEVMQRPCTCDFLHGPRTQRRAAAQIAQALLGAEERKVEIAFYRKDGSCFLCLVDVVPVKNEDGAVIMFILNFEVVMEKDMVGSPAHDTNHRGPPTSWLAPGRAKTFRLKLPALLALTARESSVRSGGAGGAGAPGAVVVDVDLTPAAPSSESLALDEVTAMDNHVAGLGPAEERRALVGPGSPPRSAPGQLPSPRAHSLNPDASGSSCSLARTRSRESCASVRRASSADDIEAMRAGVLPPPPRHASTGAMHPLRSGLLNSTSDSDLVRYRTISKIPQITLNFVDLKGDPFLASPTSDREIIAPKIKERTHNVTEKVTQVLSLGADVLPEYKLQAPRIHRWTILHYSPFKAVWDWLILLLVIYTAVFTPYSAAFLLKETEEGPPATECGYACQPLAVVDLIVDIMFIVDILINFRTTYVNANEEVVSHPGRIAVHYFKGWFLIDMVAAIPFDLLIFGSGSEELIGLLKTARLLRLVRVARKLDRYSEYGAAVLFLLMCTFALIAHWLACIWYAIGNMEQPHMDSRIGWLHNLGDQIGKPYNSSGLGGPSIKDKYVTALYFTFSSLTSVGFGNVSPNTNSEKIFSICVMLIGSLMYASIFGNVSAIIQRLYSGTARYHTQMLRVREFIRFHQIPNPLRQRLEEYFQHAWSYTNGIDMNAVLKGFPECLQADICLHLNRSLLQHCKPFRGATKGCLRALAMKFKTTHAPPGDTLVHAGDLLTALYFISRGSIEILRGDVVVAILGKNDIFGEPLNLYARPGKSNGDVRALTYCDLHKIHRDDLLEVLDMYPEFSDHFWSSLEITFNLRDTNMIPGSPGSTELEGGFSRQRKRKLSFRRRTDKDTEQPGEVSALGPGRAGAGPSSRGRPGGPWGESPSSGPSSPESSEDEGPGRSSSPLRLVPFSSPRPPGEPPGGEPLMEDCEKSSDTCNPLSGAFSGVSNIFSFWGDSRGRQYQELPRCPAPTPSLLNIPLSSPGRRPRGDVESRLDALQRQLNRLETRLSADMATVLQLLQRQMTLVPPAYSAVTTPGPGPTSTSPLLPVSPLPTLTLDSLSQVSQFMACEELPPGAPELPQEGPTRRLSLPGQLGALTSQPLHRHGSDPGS

As usually defined, the Ki is the equilibrium dissociation constant of an inhibitor or competing ligand from its target. A higher Ki goes with weaker binding. In series [1], `N=C(N)Nc1cccc(C(=O)NCC(=O)NC(CC(=O)O)c2cc(Cl)cc(Cl)c2)c1` (stereo unspecified) gave a Ki of 0.002 µM. For the same compound, the T1/2 in series [2] is 5 min.
Broadly, the logD is the decadic logarithm of the distribution of all forms, ionised or not, between an organic phase and buffer at a given pH. Lower therefore signals a more hydrophilic compound. The term IC50 denotes the concentration that gives 50% inhibition. Lower therefore signals greater potency. In turn, `O=C(O)C[C@H](CN1CC[C@@H](CCc2ccc3c(n2)NCCC3)C1)c1cccc(OC2COC2)c1` showed a logD in series [3] of 2.07. Further, the IC50 in [4] was over 50.1 µM; in series [5], over 31.6 µM.
In the case of `Cc1nc(C)n(-c2cccc([C@H](CC(=O)O)CN3CC[C@@H](CCc4ccc5c(n4)NCCC5)C3)c2)n1`, the logD in [3] came out at 1.66. Besides, the IC50 is over 50.1 µM in series [4] and over 31.6 µM in series [5].
`Cc1nncn1-c1cccc([C@H](CC(=O)O)CN2CC[C@@H](CCc3ccc4c(n3)NCCC4)C2)c1` showed a logD in series [3] of 1.77. The compound further showed an IC50 in [5] of over 31.6 µM.
With `O=C(O)C[C@H](CN1CC[C@@H](CCc2ccc3c(n2)NCCC3)C1)c1cccc(C2CCOCC2)c1`, the logD in [3] turned out to be 2.62.
With `O=C(O)C[C@H](CN1CC[C@@H](CCc2ccc3c(n2)NCCC3)C1)c1cccc(N2CCOCC2)c1`, in series [3], the logD was 2.27.
In the case of `Cc1cc(-c2cccc([C@H](CC(=O)O)CN3CC[C@@H](CCc4ccc5c(n4)NCCC5)C3)c2)[nH]n1`, the logD in series [3] was 2.53. The IC50 in [4] is over 50.1 µM; in series [5], 25.1 µM.
As for `O=C(O)C[C@H](CN1CC[C@@H](CCc2ccc3c(n2)NCCC3)C1)c1cccc(-n2ccnn2)c1`, the logD in [3] was found to be 1.75. Moreover, the fraction unbound at 4 h, 1 ug/ml in [6] was 0.28. Also, the IC50 is over 50.1 µM in series [4] and over 31.6 µM in [5].
For the compound `O=C(O)C[C@H](CN1CC[C@@H](CCc2ccc3c(n2)NCCC3)C1)c1cccc(Br)c1`, the logD in series [3] was determined as 3.15. The same compound gave an IC50 in [4] of 1.26 µM.
For the compound `Cc1cc(C)n(-c2cc([C@H](CC(=O)O)CN3CC[C@@H](CCc4ccc5c(n4)NCCC5)C3)cc(N3CCOCC3)c2)n1`, the logD in series [3] came to 2.73. Besides, the IC50 in series [4] is over 63.1 µM.
Consider `O=C(O)C[C@H](CN1CC[C@@H](CCc2ccc3c(n2)NCCC3)C1)c1cccc(C2CC2)c1`, for which, in series [7], the Activity entry is “Dose-dependent effect”.
`Cc1ccnn1-c1cccc([C@H](CC(=O)O)CN2CC[C@@H](CCc3ccc4c(n3)NCCC4)C2)c1`: the fraction unbound at 4 h, 1 ug/ml in series [6] was 0.1.
In turn, `O=C(O)C[C@H](CN1CC[C@@H](CCc2ccc3c(n2)NCCC3)C1)c1cccc(-n2cncn2)c1` came in with a logD in series [3] of 1.95. In addition, in series [6], the fraction unbound at 4 h, 1 ug/ml was 0.4. The IC50 in series [4] was over 50.1 µM; in [5], over 31.6 µM.
Turning to `Cc1cn(C)c(-c2cccc([C@H](CC(=O)O)CN3CC[C@@H](CCc4ccc5c(n4)NCCC5)C3)c2)n1`, in series [3], the logD is 2.09. The IC50 in [4] was over 50.1 µM; in series [5], over 31.6 µM.
In series [3], `O=C(O)C[C@H](CN1CC[C@@H](CCc2ccc3c(n2)NCCC3)C1)c1cccc(-n2cnnc2)c1` displayed a logD of 1.05. The fraction unbound at 4 h, 1 ug/ml in [6] was 0.46. In addition, the IC50 in series [4] is over 50.1 µM; in [5] it was over 31.6 µM.
In turn, `Cc1cnn(-c2cccc([C@H](CC(=O)O)CN3CC[C@@H](CCc4ccc5c(n4)NCCC5)C3)c2)c1` gave a logD in [3] of 3.01. In series [4], this compound had an IC50 of 10 µM.
In [3], `O=C(O)C[C@H](CN1CC[C@@H](CCc2ccc3c(n2)NCCC3)C1)c1cc(C2CC2)cc(N2CCOCC2)c1` showed a logD of 3.07.
`O=C(O)C[C@@H](CN1CC[C@@H](CCc2ccc3c(n2)NCCC3)C1)c1cccc(N2CCOCC2)c1` yielded a logD in series [3] of 1.99.
Compound `Cc1nc(C)c(-c2cccc([C@H](CC(=O)O)CN3CC[C@@H](CCc4ccc5c(n4)NCCC5)C3)c2)[nH]1` gave a logD in series [3] of 1.77. Moreover, the fraction unbound at 4 h, 1 ug/ml in [6] was 0.53. Moreover, the 50% inhibitory concentration (IC50) in series [4] was over 50.1 µM; in series [5], over 31.6 µM.
In series [3], `Cc1cnn(C)c1-c1cccc([C@H](CC(=O)O)CN2CC[C@@H](CCc3ccc4c(n3)NCCC4)C2)c1` showed a logD of 2.72.
With `O=C(O)C[C@H](CN1CC[C@@H](CCc2ccc3c(n2)NCCC3)C1)c1cccc(-n2cccn2)c1`, the logD in series [3] was 2.4. The values for the IC50 in series [4] and in series [5] were over 50.1 µM and 0.794 µM, respectively.
In series [3], `O=C(O)CC(CN1CC[C@@H](CCc2ccc3c(n2)NCCC3)C1)c1cccc(-n2ccnc2)c1` (mixture of isomers) showed a logD of 1.97. For the same compound, the 50% inhibitory concentration (IC50) was over 50.1 µM in [4] and over 31.6 µM in series [5].
Regarding `O=C(O)C[C@H](CN1CC[C@@H](CCc2ccc3c(n2)NCCC3)C1)c1cccc(C2CCOC2)c1` (stereo in doubt; 28xI1), in series [3], the logD came out at 2.56. Further, the results for the IC50 in series [4] and in [5] were 39.8 µM and 12.6 µM, respectively.
For orientation: pIC50 means the negative decadic logarithm of the IC50, by convention in mol/L. As for `O=C(O)C[C@H](CN1CC[C@@H](CCc2ccc3c(n2)NCCC3)C1)c1cccc(C2CCOC2)c1` (stereo in doubt; 28xI2), the fraction unbound at 4 h, 1 ug/ml in series [6] was 0.17. In series [5], half-maximal inhibition (IC50) required 31.6 µM. Further, the logD in series [8] is 2.58. The same compound had a pIC50 in series [9] of 4.4.
Take `Cc1cc(C)n(-c2cccc([C@H](CC(=O)O)CN3CC[C@@H](CCc4ccc5c(n4)NCCC5)C3)c2)n1.Cl` [GSK-3008348]: the figures for the Stability in series [10], in series [11] and in [12] were 6 weeks, 4 weeks and “<= 6 weeks”, respectively.
